Reference: patent publication US20260033466A1, “METHOD AND ANIMAL MODEL FOR INDUCING BCC TUMORS” (FELDAN BIO INC., priority 2022, published 2026)

Key:
[1] = test system: GFP (indicative of Ptch1 and p53 shRNA expression); assay: Immunofluorescence of GFP in skin of BCC mice after induction, no UV-B; type: in vivo, mouse; settings: absence of UV, fluorescence microscopy of skin sections, FIG. 4
Description: Positive GFP fluorescence is indicative of Ptch1 and p53 shRNA expression. […] Positive GFP fluorescence is indicative of Ptch1 and p53 shRNA expression.
For histological staining by immunofluorescence, sections were incubated 5 minutes in room temperature PBS to remove the OCT compound and then drained as much as possible. Slides were then blocked in BSA 3% and stained with anti-GFP antibody (ab6556 Abcam) or anti-Ptch1 (ThermoFisher PA5-87508) or anti-CK14 (BioLegend™ #906004) O/N at 4° C. Sections were then washed thrice (5 minutes each) with PBST and incubated with fluorophore-conjugated antibodies. Following washes (3×5 minutes), 100 μL per slide of ProLong™ Glass NucBlue™ (Invitrogen™) were applied and a coverslip. Slides were incubated overnight in the dark prior to imaging. Slides were imaged within 1-4 days after mounting and left in the dark until that time.
Next, shRNA expression was assessed in the skin of mice, either untreated, or after induction with either tamoxifen alone, doxycycline alone, or tamoxifen/doxycycline in the absence of UV.

[2] = test system: BCC tumors; assay: Anti-BCC treatment of induced BCC mice (tamoxifen/doxycycline and UV-B); type: in vivo, mouse; settings: begun 37-43 weeks post-induction
[3] = test system: mouse Ptch1; assay: shRNA knockdown efficiency reporter assay (Yuan et al. 2014); type: cell-based; settings: Ptch1 mRNA expression normalized to shRen713 (positive control); FIG. 2
Description: Knockdown efficiency was calculated by Ptch1 mRNA expression normalized to shRen713 ([…]).
Knockdown efficiency was calculated by Ptch1 mRNA expression normalized to shRen713 ([…]), a reporter shRNA targeting Renilla Luciferase 713.

CC/C(=C(\c1ccccc1)c1ccc(OCCN(C)C)cc1)c1ccccc1 [tamoxifen]
GFP expression in skin (shRNAs targeting Ptch1 and p53) [1]: no expression of GFP

CS(=O)(=O)c1ccc(C(=O)Nc2ccc(Cl)c(-c3ccccn3)c2)c(Cl)c1 [vismodegib]
tumor appearance (scabbing/crusting) ([2]; oral daily via gastric gavage 5 mg/kg, after 18-25 days of treatment, FIG. 12): visible signs of scabbing/crusting of the tumors

CO[C@H]1C[C@@H]2CC[C@@H](C)[C@@](O)(O2)C(=O)C(=O)N2CCCC[C@H]2C(=O)O[C@H]([C@H](C)C[C@@H]2CC[C@@H](OCCO)[C@H](OC)C2)CC(=O)[C@H](C)/C=C(\C)[C@@H](O)[C@@H](OC)C(=O)[C@H](C)C[C@H](C)/C=C/C=C/C=C/1C [everolimus]
tumor appearance (scabbing/crusting) ([2]; i.p. 3 mg/kg, after 7-12 days of treatment, FIG. 13): visible signs of scabbing/crusting of the tumors

B1: Ptch1.2559: shRNA targeting mouse Ptch1, nucleobases 2776-2796 of SEQ ID NO: 12; selected for the BCC model (nucleic acid)
guide: TCATGCCAAACAATTATAAAATAGTGAAGCCACAGATGTATTTTATAATTGTTTGGCATGA
knockdown efficiency [3]: 101.24%
